The record followed here is PubChem BioAssay (NCI).

Broadly, the TGI is the concentration at which net growth stops. Higher therefore signals less potent growth arrest.

The structures appear in SMILES notation.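 Grown in 96-well plates, cells were treated for 48 hours with each compound at five concentrations. Insufficient inhibition: endpoint recorded as highest concentration tested. TGI marks complete inhibition of growth.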 Bounds are passed on as bounds.

Common to all, as to experiment: DTP human tumour cell line panel, 48 h
The subject of assay [1] is MDA-MB-435.
Assay [2] relates to M14 melanoma.
In assay [3] the test system is A549 NSCLC.
The test system of assay [4] is SK-MEL-28 melanoma.
The subject of assay [5] is OVCAR-3 ovarian.
Assay [6] relates to HCT-116 colon.
Assay [7] has as its system HL-60(TB) leukemia.
In assay [8] the test system is MDA-MB-231 breast.
Assay [9] relates to HOP-62 NSCLC.
Assay [10] concerns SNB-75 CNS.
Assay [11] has as its system MALME-3M melanoma.
Assay [12] relates to UACC-62 melanoma.
Assay [13] has as its system SK-OV-3 ovarian.
The test system of assay [14] is COLO 205 colon.
The subject of assay [15] is OVCAR-5 ovarian.
Assay [16] relates to IGROV1 ovarian.
Assay [17] relates to RPMI-8226 leukemia.

As to `Clc1ccc(-c2nnc3sc4nc5ccccc5c-4nn23)c(Cl)c1`, the TGI in assay [1], in assay [2], in [3], in assay [4], in assay [5] and in assay [6] was over 100 µM in each case. Moreover, the TGI in [7], in assay [8], in [9], in assay [10], in assay [11] and in [12] was over 100 µM in each case. Moreover, the TGI in [13], in assay [14] and in assay [15] was over 100 µM in each case.

As to `COc1cc2c(cc1OC)C1C3CCCCC3CCN1CC2` (stereo unspecified), the TGI in [1], in assay [3], in assay [4], in assay [5], in assay [16] and in [6] was over 100 µM throughout. Moreover, the total growth inhibition concentration (TGI) in assay [7], in [8], in assay [9], in assay [10], in assay [11] and in assay [12] was over 100 µM each time. Further, the TGI in assay [13], in assay [14] and in [15] was over 100 µM each time.

With `O=C(O)c1ccccc1CC(Cc1ccc2c(c1)CCC2)C(=O)O` (stereo unspecified), the concentration for total growth inhibition (TGI) in [1], in assay [2], in assay [3], in [17], in [4] and in assay [5] was over 100 µM in each case. Also, the TGI in [16], in [6], in assay [7], in [8], in assay [9] and in assay [10] was over 100 µM throughout. The TGI in [11], in assay [13], in assay [14] and in [15] was over 100 µM each time.

As to `Cc1nn(-c2ccccc2)c2c1C(c1cc3ccccc3nc1Cl)NC(=O)N2` (stereo unspecified), the TGI in assay [1] is 54.7 µM; in assay [2] it was 42.4 µM; in [3], over 100 µM; in assay [17], 61.4 µM; in assay [5], over 100 µM; in assay [16], 24.9 µM. Further, the TGI in assay [6] amounted to 84.6 µM; in assay [7] it was 52.6 µM; in assay [8], 59.3 µM; in assay [9], 54.4 µM; in assay [10] it was 50.2 µM; in assay [11], 51.8 µM. Further, the concentration for total growth inhibition (TGI) was found to be 42.5 µM in assay [12], 49.1 µM in assay [13], 41.1 µM in assay [14] and 43.8 µM in assay [15].

Consider `C=CCc1cc(-c2nc(=S)[nH][nH]2)ccc1N=NNc1ccc(C(=O)O)cc1`, for which the TGI in [1], in assay [2], in assay [3], in assay [17], in assay [4] and in assay [5] was over 100 µM each time. Also, the TGI in assay [16], in [6], in assay [7], in [8], in assay [9] and in assay [10] was over 100 µM each time. Moreover, the TGI is over 100 µM in assay [11], over 100 µM in [13], 58 µM in assay [14] and over 100 µM in assay [15].

As for `Cc1ccc(S(=O)(=O)n2c3c(c4ccccc42)CCN2C[C@H]([C@H](C)Br)CC[C@@H]32)cc1`, the TGI in [1], in assay [2], in assay [3], in assay [17], in assay [4] and in [5] was over 100 µM throughout. In addition, the concentration for total growth inhibition (TGI) in [16], in assay [7], in assay [8], in assay [9], in assay [10] and in assay [11] was over 100 µM throughout. The concentration for total growth inhibition (TGI) in assay [12], in [13], in assay [14] and in [15] was over 100 µM throughout.

For the molecule `COc1cc(O)c2c(c1)C(=O)c1cc3c(c(O)c1C2=O)C(OC1OC(C)C(OC)C(O)C1OC)C(OC)C(C)(O)C3=O` (stereo unspecified), the TGI in assay [1] came out at 16.1 µM; in assay [2], 9.61 µM; in [3] it was 16.1 µM; in [17], 4.6 µM; in [4] it was 22.1 µM; in [5], 22.6 µM. Further, the TGI in [16] is 6.5 µM; in assay [6], 14.6 µM; in assay [7], over 100 µM; in [8] it was 27.3 µM; in [9], 44.2 µM; in assay [10], 16 µM. In addition, the TGI in assay [11] came to 5.85 µM; in assay [13] it was 97 µM; in assay [14] it was 13.3 µM; in assay [15], 33.6 µM.

Consider `CCCCCC#CCOC(=O)C(=[N+]=[N-])P(=O)(c1ccccc1)c1ccccc1`, for which the total growth inhibition concentration (TGI) in assay [1], in assay [2], in assay [3], in assay [17], in assay [4] and in [5] was over 10 µM throughout. The TGI in assay [16], in assay [6], in [7], in assay [8], in [9] and in assay [10] was over 10 µM each time. In addition, the TGI in assay [11], in assay [12], in assay [13] and in assay [15] was over 10 µM throughout.

`C[C@H](CCC(=O)O)[C@H]1CC[C@H]2[C@@H]3C(=O)C[C@@H]4C[C@H](O)CC[C@]4(C)[C@H]3C[C@H](O)[C@]12C`: the TGI in [1], in assay [2], in [3], in [17], in [4] and in [16] was over 100 µM throughout. Also, the TGI in [6], in assay [7], in assay [8], in assay [9], in [10] and in [11] was over 100 µM each time. For the same molecule, the TGI in [12], in assay [14] and in assay [15] was over 100 µM throughout.

With `Cc1nc(C)c(N2CCN([N+](=O)[O-])CC2)c(=O)[nH]1`, the total growth inhibition concentration (TGI) in [1], in assay [2], in assay [3], in assay [17], in assay [4] and in assay [5] was over 100 µM throughout. Besides, the total growth inhibition concentration (TGI) in assay [16] is over 100 µM; in assay [6], over 100 µM; in [7] it was over 100 µM; in assay [8], over 100 µM; in [9], over 100 µM; in assay [10], 0.611 µM. Further, the TGI in assay [11], in assay [12], in assay [13] and in [14] was over 100 µM in each case.

On to `COc1ccc(-c2nc(SCC(=O)NNC(=S)Nc3ccccc3)[nH]c2-c2ccc(OC)cc2)cc1`, for which the TGI in assay [1] was 46.7 µM; in assay [2], 34.6 µM; in assay [3] it was over 100 µM; in [4], 66.8 µM; in assay [5], 34.5 µM; in assay [16] it was over 100 µM. In addition, the TGI was 78 µM in assay [6]; 29.9 µM in [7]; 95.4 µM in [8]; 46.1 µM in assay [9]; over 100 µM in assay [10]; over 100 µM in [11]. In addition, the total growth inhibition concentration (TGI) in assay [12] was 30.6 µM; in assay [13] it was over 100 µM; in assay [14], 30.4 µM; in assay [15], 49 µM.

Consider `CCCNc1ncnc2c1ncn2C`, for which the TGI in assay [1], in [2], in assay [3], in assay [17], in [4] and in assay [5] was over 100 µM throughout. Moreover, the total growth inhibition concentration (TGI) in assay [16] was over 100 µM; in [6], over 100 µM; in assay [7] it was 96.3 µM; in assay [8], over 100 µM; in assay [9], over 100 µM; in assay [10] it was over 100 µM. In addition, the TGI in assay [11], in assay [12], in [13] and in [14] was over 100 µM throughout.

`CC1(C)OC[C@@H](O)[C@H](C#N)CO1`: the TGI in assay [1], in [2], in assay [3], in assay [17], in [4] and in [5] was over 100 µM throughout. Further, the TGI in [6], in [7], in assay [8], in [9], in assay [10] and in assay [11] was over 100 µM in each case. The TGI in assay [12], in assay [13], in assay [14] and in assay [15] was over 100 µM each time.

In the case of `O=c1[nH][nH]c(=O)n1CCCCCCn1c(=O)[nH][nH]c1=O`, the TGI in assay [1], in [2], in assay [3], in assay [17], in assay [4] and in assay [5] was over 100 µM each time. For the same molecule, the TGI in [6], in assay [7], in assay [8], in assay [10], in assay [11] and in assay [12] was over 100 µM throughout. Further, the TGI in assay [13], in assay [14] and in assay [15] was over 100 µM throughout.

Turning to `O=C1C=C/C(=N\N=C(c2ccccc2)c2ccccc2)O1`, the TGI in [1], in [2], in [3], in [17], in assay [4] and in assay [16] was over 10 µM throughout. Besides, the TGI in [7], in assay [8], in assay [9], in [10], in assay [11] and in [12] was over 10 µM throughout. For the same molecule, the concentration for total growth inhibition (TGI) in assay [13] and in assay [14] was over 10 µM in each case.

Regarding `O=C(O)[C@H]1CCCN1CP(=O)(O)CN1CCC[C@@H]1C(=O)O`, the TGI in assay [1], in assay [2], in [3], in assay [4], in assay [5] and in [16] was over 100 µM each time. Moreover, the concentration for total growth inhibition (TGI) in assay [6], in assay [7], in assay [8], in assay [9], in [10] and in assay [11] was over 100 µM in each case. The total growth inhibition concentration (TGI) in assay [12], in assay [13], in [14] and in assay [15] was over 100 µM in each case.

For `BrC(=C(c1ccc(OC2CCCCO2)cc1)c1ccc(OC2CCCCO2)cc1)c1ccccc1` (stereo unspecified), the TGI in [1], in [2], in assay [3], in assay [17], in assay [4] and in assay [5] was over 100 µM throughout. Besides, the TGI in assay [16], in assay [6], in [7], in assay [8], in assay [9] and in [10] was over 100 µM each time. Besides, the total growth inhibition concentration (TGI) in [11], in assay [12], in assay [13] and in assay [14] was over 100 µM throughout.
